Assay [1] has as its system nuclear symmetric Arginine dimethylation in A549 cells. Kind of assay: PD assay (assay 2): inhibition of nuclear symmetric Arginine dimethylation (SYM10 immunohistochemistry), 48 h. To be noted: Homo sapiens. The class given is cell-based. Here is the method:
Experimental Procedure PD Assay (Assay 2)
A549 cells (ATCC, Cat #CCL-185) were cultured in Dulbecco's Modified Eagle's Medium (DMEM) (Sigma, Cat #D5796), supplemented with 10% Fetal Calf Serum (FCS) (HyClone™, Cat #SV30160.03), 100 mM Sodium Pyruvate (Sigma, Cat #S8636), 200 mM L-Glutamine (Sigma, Cat #G7513) and 50 mg/mL gentamycin (Gibco, Cat #15750-037).
Reagents used for buffers were purchased: Dulbecco's phosphate buffered saline (DPBS) without Ca/Mg (Sigma, Cat #D8537), phosphate buffered saline (PBS) 10× (Roche, Cat #11 666 789 001), Formalin solution 10% (Sigma, HT50-1-128-4L), Methanol 100% (Sigma, Cat #32213-2.5L), Triton X-100 (Acros, Cat #215680010), Bovine Serum Albumin (BSA) (Sigma, Cat #A2153), Alexa fluor 488 goat anti-rabbit antibody (Life Technologies, Cat #A11034), HCS CellMask Deep Red Stain (Life Technologies, Cat #H32721), Hoechst Stain (Life Technologies, Cat #33258), Anti-dimethyl-Arginine, sym (SYM10) antibody (Millipore, 07-412).
Immunohistochemistry Procedure
Cells were plated at 400 cells/40 μL/well in 384 well black μplates clear bottom (Perkin Elmer) and overnight incubated at 37° C., 5% CO2. […] 80 nL of the respective dilution of the compounds was added using the Labcyte POD 810 (Labcyte) reaching a final DMSO concentration of 0.2% in cell culture. After an incubation period of 48 h at 37° C. and 5% CO2, cells were fixed in 10% formalin solution for 15 min at room temperature and 20 min in ice-cold methanol, after which they were washed 3× in DPBS. Subsequently, the cells were blocked for 1 h in blocking buffer (PBS+1% BSA and 0.5% Triton X-100) and incubated overnight at 4° C. with the SYM10 antibody diluted 1/2000 in blocking buffer. The cells were washed 3× with washing buffer (PBS+0.1% Triton X-100) and incubated with the Alexa fluor 488 goat anti-rabbit antibody diluted 1/200 in blocking buffer for 1 h at room temperature. Subsequently, they were washed 3× with washing buffer and incubated for 30 min at room temperature with PBS containing a 1/5000 dilution of Hoechst Stain and a 1/5000 dilution of the HCS CellMask Deep Red Stain. After a final wash with PBS, the plates were imaged using the 10×W lens of the Opera® system (Perkin Elmer Life Sciences) using following settings (values in nm):
In the above equations, the following variable names are used: […]
In the above equations, the following controls were used for normalization: […]
Low control: minimum level of symmetrically dimethylated Arginines (cells treated with reference compound at 10 μM).
High control: maximum level of symmetrically dimethylated Arginines (DMSO treated cells).
IC50 and pIC50 (−log IC50) values were calculated using the appropriate software.
The pIC50 values in the Table below are averaged values (Co. No. means compound number; n.d. means not determined).

The target in assay [2] is T1, PRMT5-MEP50 enzyme (Homo sapiens, UniProt O14744).
T1 construct: One virus expresses full length human PRMT5 with Flag-tag at N-terminus; Flag (N); purchased Charles River (Argenta); host or cells: insect cells (Sf9), baculovirus co-infection
T1 sequence (O14744 whole entry): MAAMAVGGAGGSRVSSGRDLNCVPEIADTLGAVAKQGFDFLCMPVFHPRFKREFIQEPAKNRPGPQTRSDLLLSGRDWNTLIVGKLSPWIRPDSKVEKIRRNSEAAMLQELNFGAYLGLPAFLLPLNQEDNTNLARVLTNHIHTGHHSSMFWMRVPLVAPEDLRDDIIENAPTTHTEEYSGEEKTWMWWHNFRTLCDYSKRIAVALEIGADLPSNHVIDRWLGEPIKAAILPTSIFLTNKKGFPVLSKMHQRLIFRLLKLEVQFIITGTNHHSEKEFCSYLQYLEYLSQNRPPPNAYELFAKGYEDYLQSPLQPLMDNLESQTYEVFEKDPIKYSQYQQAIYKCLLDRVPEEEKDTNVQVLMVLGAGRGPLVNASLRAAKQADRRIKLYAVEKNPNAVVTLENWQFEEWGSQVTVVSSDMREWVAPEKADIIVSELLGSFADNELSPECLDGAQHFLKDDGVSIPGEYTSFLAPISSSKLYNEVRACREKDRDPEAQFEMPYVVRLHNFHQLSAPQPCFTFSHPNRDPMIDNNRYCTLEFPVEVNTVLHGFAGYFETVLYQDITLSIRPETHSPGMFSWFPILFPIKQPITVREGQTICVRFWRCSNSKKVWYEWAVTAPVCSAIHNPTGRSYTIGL
T1 sequence (Q9BQA1 whole entry partner): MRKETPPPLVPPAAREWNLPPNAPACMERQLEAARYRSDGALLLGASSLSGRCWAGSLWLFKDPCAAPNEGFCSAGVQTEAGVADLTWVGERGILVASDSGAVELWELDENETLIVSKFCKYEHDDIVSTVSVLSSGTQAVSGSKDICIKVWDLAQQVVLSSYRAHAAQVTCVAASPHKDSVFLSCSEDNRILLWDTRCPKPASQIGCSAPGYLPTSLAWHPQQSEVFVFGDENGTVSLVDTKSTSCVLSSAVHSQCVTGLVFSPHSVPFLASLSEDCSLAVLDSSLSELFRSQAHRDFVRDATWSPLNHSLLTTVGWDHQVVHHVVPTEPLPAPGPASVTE
Kind of assay: In vitro assay 1b: high throughput mass spectrometer assay of SAH formation, 1.25 nM enzyme, 120 min. The class given is biochemical. To be noted: averaged values; PRMT5-MEP50, 1.25 nM enzyme, 120 min; read-out: pIC50 Assay 1b (converted). From the text:
Experimental Procedures In Vitro Assay (Assay 1a and 1b)
PRMT5-MEP50 enzyme was purchased from Charles River (Argenta). The enzyme complex was produced in insect cells (Sf9) infected simultaneously with two baculoviruses. One virus expresses full length human PRMT5 with Flag-tag at N-terminus, the second virus expresses full length MEP50 with His6-TEV cleavage at N-terminus. The protein was affinity purified using anti-Flag (M2) beads eluted with 3×FLAG peptide, followed by His-Select eluted with 0.5M imidazole. Eluted protein was then dialysed against tris-buffered saline (TBS) (pH 8.0) containing 20% glycerol and 3 mM dithiothreitol (DTT).
Full-length untagged human recombinant histone H2A (residues 1-130, Genbank Accession #NM_021052 MW=14.1 kDa) expressed in E. coli was purchased from Reaction Biology Corporation, Cat #HMT-11-146. Reagents used for making reaction buffer or stopping reaction were purchased including Tris base (Sigma Cat #T-1503), NaCl (Sigma Cat #RGF-3270), MgCl2 (Sigma Cat #M0250), DTTI (Invitrogen Cat #15508-013) and Formic Acid (Riedel deHaen, Cat #33015)
High Throughput Mass Spectrometer Assay
PRMT5 catalyzes the sequential methylations of the terminal nitrogen atoms on the guanidine groups of arginine residues within proteins using co-substrate S-adenosyl-L-methionine (AdoMet, SAM), forming mono-methyl (MMA), symmetric-dimethyl arginine (sDMA) and S-adenosyl-L-homocysteine (AdoHcy, SAH). The enzyme activity was determined by following the product SAH formation using high throughput mass spectrometry (Agilent Rapidfire 300 System coupled to a Sciex 4000 series QTrap® triple-quad MS/MS). The reaction buffer was 20 mM Tris-HCl, pH 8.5, 50 mM NaCl, 5 mM MgCl2 and 1 mM DTT. The reaction activity was stopped using 1% formic acid (final concentration).
The IC50 Studies were performed using eleven point dosing series made for each compound by serially diluted 1:2 in dimethyl sulfoxide (DMSO), with point 12 being a DMSO control. Compounds were first spotted to plates, and followed by addition of 2 μM SAM and 0.6 μM H2A (histone H2A) solution mixture. The same volume of enzyme solution was added to initiate the enzymatic reactions. The final concentrations of the reaction are at 1 μM SAM, 0.3 μM H2A and 10 nM enzyme (assay 1a) or 1.25 nM enzyme (assay 1b). The reaction was incubated at 30° C. for 60 minutes (min) when 10 nM enzyme was used and for 120 min when 1.25 nM enzyme was used. Subsequently, the reaction was quenched by addition of formic acid to a final concentration of 1%. The inhibitions of SAH formation in the presence of compounds were calculated as a percentage of the control relative to the uninhibited reaction as a function of inhibitor concentration. The data were fit as follows: Y=Bottom+(Top−Bottom)/(1+10^((log IC50−X)*h))
where IC50 is the inhibitor concentration (same unit as X) at 50% inhibition and h is the Hill slope. Y is percent of inhibition, X is log of compound concentration. Bottom and Top are the plateaus in same units as Y.

Setting [3] is: A549, averaged values, PD assay, A549 cells, symmetric Arginine dimethylation, read-out: pIC50 Assay 2 (converted).
The mark [4] stands for this setting: A549, read-out: pIC50 Assay 2 (converted).

Where two headings read alike, the source gives them in different places.

As to `Nc1ncnc2c1ccn2[C@@H]1O[C@H](COc2ccc3cccnc3c2)[C@@H](O)[C@H]1O` [Compound 1], the IC50 in assay [1] (setting [3]) was 79.4 nM; in assay [2], 12.6 nM.
For `Nc1ncnc2c1ccn2[C@@H]1C[C@H](COc2ccc3cccnc3c2)[C@@H](O)[C@H]1O` [Compound 46], the IC50 in assay [1] (setting [3]) was 126 nM; in assay [2], 63.1 nM.
Turning to `Nc1ncnc2c1ccn2[C@@H]1C[C@H](CCc2ccc3ccc(NCC4CC4)nc3c2)[C@@H](O)[C@H]1O` [Compound 74], the IC50 in assay [1] (setting [4]) was 0.398 nM; in assay [2] it was 0.126 nM.
`Nc1ccc2ccc(CC[C@H]3C[C@@H](n4ccc5c(N)ncnc54)[C@H](O)[C@@H]3O)cc2n1` [Compound 76]: in assay [1] (setting [4]), the IC50 is 0.158 nM.
Take `Nc1nc2cc(CC[C@H]3C[C@@H](n4ccc5c(N)ncnc54)[C@H](O)[C@@H]3O)ccc2cc1Br` [Compound 80]: in assay [1] (setting [3]), the IC50 was 0.251 nM.
For the molecule `Nc1ncnc2c1ccn2[C@@H]1C[C@H](CCc2ccc3cc(Br)c(NC4CC4)nc3c2)[C@@H](O)[C@H]1O` [Compound 153], the IC50 in assay [1] (setting [3]) was 31.6 nM; in assay [2], 200 nM.
For `Nc1nc2cc(CC[C@H]3C[C@@H](n4ccc5c(N)ncnc54)[C@H](O)[C@@H]3O)ccc2cc1C(F)(F)F` [Compound 154] the same measures were 2.51 nM and 0.316 nM.
Consider `Nc1ncnc2c1ccn2[C@@H]1C[C@H](CCc2ccc3cc(F)c(NCC4CC4)nc3c2)[C@@H](O)[C@H]1O` [Compound 155], for which the results for the IC50 in assay [1] (setting [3]) and in assay [2] were 251 nM and 158 nM, respectively.
The like results for `Nc1ncnc2c1ccn2[C@@H]1C[C@H](CCc2ccc3ccc(NC4CCC4)nc3c2)[C@@H](O)[C@H]1O` [Compound 156] were, in that order, under 1.17 nM and 0.316 nM.
The like results for `CNc1nc2cc(CC[C@H]3C[C@@H](n4ccc5c(N)ncnc54)[C@H](O)[C@@H]3O)ccc2cc1F` [Compound 157] were, in that order, 501 nM and 631 nM.
For `Nc1nc2cc(CC[C@H]3O[C@@H](n4ccc5c(N)ncnc54)[C@H](O)[C@@H]3O)ccc2cc1Cl` [Compound 158] the same measures were 3.16 nM and 0.126 nM.
Consider `Nc1nc2cc(CC[C@H]3C[C@@H](n4ccc5c(N)ncnc54)[C@H](O)[C@@H]3O)ccc2cc1F` [Compound 159], for which the IC50 is under 1.17 nM in assay [1] (setting [3]) and 0.126 nM in assay [2].
The like results for `Nc1ncnc2c1ccn2[C@@H]1C[C@H](OCc2ccc3ccc(NCC4CC4)nc3c2)[C@@H](O)[C@H]1O` [Compound 160] were, in that order, 15.8 nM and 0.794 nM.
The like results for `Nc1ncnc2c1ccn2[C@@H]1C[C@H](CCc2ccc3ccc(Nc4ccc(Cl)cc4)nc3c2)[C@@H](O)[C@H]1O` [Compound 161] were, in that order, 39.8 nM and 1.58 nM.
For `CNc1ncnc2c1ccn2[C@@H]1C[C@H](CCc2ccc3ccc(NCC(F)(F)F)nc3c2)[C@@H](O)[C@H]1O` [Compound 162] the same measures were 158 nM and 7.94 nM.
`CNc1ccc2ccc(CC[C@H]3C[C@@H](n4ccc5c(NC)ncnc54)[C@H](O)[C@@H]3O)cc2n1` [Compound 178]: the figures for the IC50 in assay [1] (setting [3]) and in assay [2] were 10 nM and 0.794 nM, respectively.
For the molecule `Nc1ncnc2c1ccn2[C@@H]1C[C@H](COc2ccc3ccc(NCC4CC4)nc3c2)[C@@H](O)[C@H]1O` [Compound 224], the IC50 in assay [2] was under 0.2 nM.
On the same count and under the same terms, the same measure for `CNc1ncnc2c1ccn2[C@@H]1C[C@H](COc2ccc3ccc(NCC4CC4)nc3c2)[C@@H](O)[C@H]1O` [Compound 225]: 6.31 nM; for `CNc1ncnc2c1ccn2[C@@H]1C[C@H](COc2ccc3cc(Cl)c(N)nc3c2)[C@@H](O)[C@H]1O` [Compound 227]: 1.26 nM.
Same read-out and setting: as for `COc1ncnc2c1ccn2[C@@H]1C[C@H](COc2ccc3cc(Cl)c(N)nc3c2)[C@@H](O)[C@H]1O` [Compound 228], the figure is 5.01 nM; as for `CNc1ncnc2c1ccn2[C@@H]1O[C@H](CCc2ccc3cc(F)c(N)nc3c2)[C@@H](O)[C@H]1O` [Compound 229], 39.8 nM.
For the molecule `COc1ncnc2c1ccn2[C@@H]1O[C@H](CCc2ccc3cc(F)c(N)nc3c2)[C@@H](O)[C@H]1O` [Compound 230], the IC50 in assay [2] is 631 nM.
The same measure, in the same setting: the same measure for `Nc1nc2cc(CC[C@H]3O[C@@H](n4ccc5c(N)ncnc54)[C@H](O)[C@@H]3O)ccc2cc1F` [Compound 231]: 0.631 nM; for `CNc1ncnc2c1ccn2[C@@H]1O[C@H](COc2ccc3cc(Br)c(N)nc3c2)[C@@H](O)[C@H]1O` [Compound 232]: 3.98 nM; for `Nc1nc2cc(OC[C@H]3O[C@@H](n4ccc5c(N)ncnc54)[C@H](O)[C@@H]3O)ccc2cc1Br` [Compound 233]: under 0.2 nM.
As to `Nc1nc2cc(OC[C@H]3O[C@@H](n4ccc5c(O)ncnc54)[C@H](O)[C@@H]3O)ccc2cc1Br` [Compound 234], the IC50 in assay [2] is 794 nM.
On the same count and under the same terms, as for `Nc1nc2cc(CC[C@H]3O[C@@H](n4ccc5c(N)ncnc54)[C@H](O)[C@@H]3O)ccc2cc1Br` [Compound 235], the figure is 0.2 nM.
Still for that read-out and setting: as for `Nc1nc2cc(OC[C@H]3C[C@@H](n4ccc5c(N)ncnc54)[C@H](O)[C@@H]3O)ccc2cc1Br` [Compound 236], the figure is under 0.2 nM.
As to `Nc1nc2cc(CC[C@H]3O[C@@H](n4ccc5c(N)ncnc54)[C@H](O)[C@@H]3O)ccc2cc1C(F)(F)F` [Compound 244], in assay [2], the IC50 was 3.16 nM.
For `Nc1nc2cc(CC[C@H]3C[C@@H](n4ccc5cnccc54)[C@H](O)[C@@H]3O)ccc2cc1Cl` [Compound 247], the IC50 in assay [2] was 0.794 nM.
On the same count and under the same terms, the same measure for `Nc1nc2cc(CC[C@H]3C[C@@H](n4ccc5c(N)nccc54)[C@H](O)[C@@H]3O)ccc2cc1Br` [Compound 252]: 0.631 nM.

The values above are taken from patent US11318157B2, “6-6 bicyclic aromatic ring substituted nucleoside analogues for use as PRMT5 inhibitors” (Janssen Pharmaceutica NV, priority 2015, dated 2022).
